Results as given in ChEMBL document CHEMBL1909046, “DrugMatrix in vitro pharmacology data”.

How the values were obtained:
[1] = target: D(3) dopamine receptor (Homo sapiens, UniProt P35462); assay: DRUGMATRIX: Dopamine D3 radioligand binding (ligand: [3H] Spiperone); assay type: cell membranes, CHO, Membrane; conditions: for Ki: read-out: Ki
[2] = target: T1, Endothelin-1 receptor (Homo sapiens, UniProt P25101); assay type: cell membranes, Membrane; conditions: cho-k1; further: in other assays of this panel Not Active means under 50% inhibition at 10 µM
T1 sequence (P25101 whole entry): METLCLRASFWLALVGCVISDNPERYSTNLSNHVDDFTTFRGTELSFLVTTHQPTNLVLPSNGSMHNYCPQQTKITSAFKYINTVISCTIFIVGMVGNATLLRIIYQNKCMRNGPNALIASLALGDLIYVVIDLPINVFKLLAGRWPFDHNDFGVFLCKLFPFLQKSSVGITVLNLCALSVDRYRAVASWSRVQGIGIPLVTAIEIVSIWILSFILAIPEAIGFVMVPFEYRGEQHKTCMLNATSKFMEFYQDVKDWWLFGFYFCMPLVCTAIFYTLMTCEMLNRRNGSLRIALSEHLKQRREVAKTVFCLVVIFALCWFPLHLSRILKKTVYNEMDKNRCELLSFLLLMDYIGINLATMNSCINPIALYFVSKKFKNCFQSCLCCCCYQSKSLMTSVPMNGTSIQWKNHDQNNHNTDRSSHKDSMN

[3] = target: Beta-3 adrenergic receptor (Homo sapiens, UniProt P13945); assay: DRUGMATRIX: Adrenergic beta3 radioligand binding (ligand: [125I] Cyanopindolol); assay type: cell membranes, HEK293, Membrane; conditions: Not Active = under 50% inhibition at 10 µM
Sequence of Beta-3 adrenergic receptor (P13945 whole entry): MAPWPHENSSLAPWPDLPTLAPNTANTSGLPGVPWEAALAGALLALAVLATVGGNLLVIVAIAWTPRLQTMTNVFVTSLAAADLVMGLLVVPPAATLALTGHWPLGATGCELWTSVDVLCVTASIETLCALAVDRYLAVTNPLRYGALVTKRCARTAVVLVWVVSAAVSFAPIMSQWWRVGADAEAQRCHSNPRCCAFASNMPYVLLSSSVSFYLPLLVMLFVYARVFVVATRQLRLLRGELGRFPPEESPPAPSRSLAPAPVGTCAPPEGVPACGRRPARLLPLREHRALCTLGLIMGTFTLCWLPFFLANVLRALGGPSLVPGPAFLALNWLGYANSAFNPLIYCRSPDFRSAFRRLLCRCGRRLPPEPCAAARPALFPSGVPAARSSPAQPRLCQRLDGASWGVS

[4] = target: T2, Muscarinic acetylcholine receptor M4 (Homo sapiens, UniProt P08173); assay type: cell membranes, CHO-K1, Membrane; conditions: for Ki: read-out: Ki; on all read-outs here: in other assays of this panel Not Active means under 50% inhibition at 10 µM
T2 sequence (P08173 whole entry): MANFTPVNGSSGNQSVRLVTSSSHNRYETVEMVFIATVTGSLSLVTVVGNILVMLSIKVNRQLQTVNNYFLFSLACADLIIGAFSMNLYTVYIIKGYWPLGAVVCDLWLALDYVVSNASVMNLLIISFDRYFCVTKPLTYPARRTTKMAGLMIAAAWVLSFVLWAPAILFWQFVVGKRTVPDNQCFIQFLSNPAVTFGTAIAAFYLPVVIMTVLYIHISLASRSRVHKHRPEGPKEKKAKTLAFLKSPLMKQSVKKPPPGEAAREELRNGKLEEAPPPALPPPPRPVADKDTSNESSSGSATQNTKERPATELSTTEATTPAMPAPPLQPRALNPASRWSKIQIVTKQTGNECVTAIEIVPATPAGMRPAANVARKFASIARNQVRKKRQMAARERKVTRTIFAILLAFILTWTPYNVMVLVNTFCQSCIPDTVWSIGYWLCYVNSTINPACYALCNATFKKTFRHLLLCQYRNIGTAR

[5] = DRUGMATRIX: Calcium Channel Type L, Dihydropyridine radioligand binding (ligand: [3H] Nitrendipine); assay type: cell membranes, Rattus norvegicus, Wistar, Cerebral cortex, Membrane; conditions: Not Active = under 50% inhibition at 10 µM

Sequence of D(3) dopamine receptor (P35462 whole entry): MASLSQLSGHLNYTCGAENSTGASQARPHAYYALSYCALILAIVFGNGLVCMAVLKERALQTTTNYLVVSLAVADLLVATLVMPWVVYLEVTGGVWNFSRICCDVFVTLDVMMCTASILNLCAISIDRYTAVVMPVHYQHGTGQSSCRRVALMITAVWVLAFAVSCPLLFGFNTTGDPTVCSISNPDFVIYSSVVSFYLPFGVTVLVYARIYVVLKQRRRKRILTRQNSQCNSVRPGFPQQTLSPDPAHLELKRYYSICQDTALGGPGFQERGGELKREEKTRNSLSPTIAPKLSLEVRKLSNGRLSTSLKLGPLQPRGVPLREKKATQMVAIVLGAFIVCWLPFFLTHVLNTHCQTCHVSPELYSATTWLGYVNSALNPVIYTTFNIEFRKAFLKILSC

Row | SMILES | IC50 ([1]; cho) | IC50 [2] | IC50 ([3]; hek293) | IC50 ([4]; cho-k1) | IC50 [5] | Ki [5] | IC50 ([1]; read-out: IC50) [µM] | Ki [1] [µM] | IC50 ([4]; read-out: IC50) [µM] | Ki [4] [µM] | IC50 ([3]; read-out: IC50) [µM] | Ki ([3]; read-out: Ki) [µM] | IC50 ([5]; read-out: IC50) [µM] | Ki ([5]; read-out: Ki) [µM]
1 | CCCNC(C)C(=O)Nc1ccccc1C (stereo unspecified) [PRILOCAINE] | Not Active | Not Active | Not Active | Not Active | Not Active | Not Active | – | – | – | – | – | – | – | –
2 | NS(=O)(=O)c1cc(C2(O)NC(=O)c3ccccc32)ccc1Cl (stereo unspecified) [CHLORTHALIDONE] | Not Active | Not Active | Not Active | Not Active | Not Active | Not Active | – | – | – | – | – | – | – | –
3 | CCN(CC)CCCC(C)Nc1c2ccc(Cl)cc2nc2ccc(OC)cc12 (stereo unspecified) [QUINACRINE] | – | Not Active | Not Active | – | Not Active | Not Active | 1.32 | 0.448 | 1.98 | 0.277 | – | – | – | –
4 | CN1CCC(=C2c3ccccc3CC(=O)c3sccc32)CC1 [KETOTIFEN] | – | Not Active | Not Active | – | Not Active | Not Active | 1.96 | 0.667 | 1.01 | 0.141 | – | – | – | –
5 | Cc1c(O)cccc1C(=O)N[C@@H](CSc1ccccc1)[C@H](O)CN1C[C@H]2CCCC[C@H]2C[C@H]1C(=O)NC(C)(C)C | Not Active | Not Active | – | Not Active | – | – | – | – | – | – | 34.1 | 25.6 | 9.84 | 6.32
6 | Cn1c(=O)c2c(ncn2C)n(C)c1=O [CAFFEINE] | Not Active | Not Active | Not Active | Not Active | Not Active | Not Active | – | – | – | – | – | – | – | –
7 | CC(C)NCC(O)c1ccccc1Cl (stereo unspecified) [CLORPRENALINE] | Not Active | Not Active | Not Active | Not Active | Not Active | Not Active | – | – | – | – | – | – | – | –
8 | NC(=O)c1cccnc1 [NIACINAMIDE] | Not Active | Not Active | Not Active | Not Active | Not Active | Not Active | – | – | – | – | – | – | – | –
9 | C[C@]12C=CC(=O)C=C1CC[C@H]1[C@@H]3C[C@@H](O)[C@](O)(C(=O)CO)[C@@]3(C)C[C@H](O)[C@@]12F [TRIAMCINOLONE] | Not Active | Not Active | Not Active | Not Active | Not Active | Not Active | – | – | – | – | – | – | – | –
10 | CC(=O)OCC(=O)[C@@]1(O)CC[C@H]2[C@@H]3CCC4=CC(=O)CC[C@]4(C)[C@@]3(F)[C@@H](O)C[C@@]21C [FLUDROCORTISONE ACETATE] | Not Active | Not Active | Not Active | Not Active | Not Active | Not Active | – | – | – | – | – | – | – | –
11 | CN(C)C(=O)Oc1cccc([N+](C)(C)C)c1.[Br-] [NEOSTIGMINE BROMIDE] | Not Active | Not Active | Not Active | Not Active | Not Active | Not Active | – | – | – | – | – | – | – | –
12 | C[C@]12CC[C@@H]3c4ccc(O)cc4CC[C@H]3[C@@H]1C[C@@H](O)[C@@H]2O [ESTRIOL] | Not Active | Not Active | Not Active | Not Active | Not Active | Not Active | – | – | – | – | – | – | – | –
13 | CCN(CC)CCNC(=O)c1ccc(N)cc1 [PROCAINAMIDE] | Not Active | Not Active | Not Active | Not Active | Not Active | Not Active | – | – | – | – | – | – | – | –
14 | O=C(O)P(=O)(O)O [FOSCARNET] | Not Active | Not Active | Not Active | Not Active | Not Active | Not Active | – | – | – | – | – | – | – | –
15 | C[C@H]1[C@H](NC(=O)/C(=N\OC(C)(C)C(=O)O)c2csc(N)n2)C(=O)N1S(=O)(=O)O [AZTREONAM] | Not Active | Not Active | Not Active | Not Active | Not Active | Not Active | – | – | – | – | – | – | – | –
16 | CN1C[C@@H]2C[C@H]1CN2c1cc2c(cc1F)c(=O)c(C(=O)O)cn2C1CC1 [DANOFLOXACIN] | Not Active | Not Active | Not Active | Not Active | Not Active | Not Active | – | – | – | – | – | – | – | –
17 | CC(=O)OCC(=O)[C@@]12OC(C)(C)O[C@@H]1C[C@H]1[C@@H]3C[C@H](F)C4=CC(=O)C=C[C@]4(C)[C@@]3(F)[C@@H](O)C[C@@]12C [FLUOCINONIDE] | Not Active | Not Active | Not Active | Not Active | Not Active | Not Active | – | – | – | – | – | – | – | –

Row | SMILES | IC50 ([1]; cho) | IC50 [2] | IC50 ([3]; hek293) | IC50 ([4]; cho-k1) | IC50 [5] | Ki [5] | IC50 ([1]; read-out: IC50) [µM] | Ki [1] [µM] | IC50 ([4]; read-out: IC50) [µM] | Ki [4] [µM] | IC50 ([3]; read-out: IC50) [µM] | Ki ([3]; read-out: Ki) [µM] | IC50 ([5]; read-out: IC50) [µM] | Ki ([5]; read-out: Ki) [µM]
18 | CN1CCCC(CN2c3ccccc3Sc3ccccc32)C1 (stereo unspecified) [MEPAZINE] | – | Not Active | Not Active | – | Not Active | Not Active | 2.01 | 0.681 | 0.137 | 0.019 | – | – | – | –
19 | NCCCNCCSP(=O)(O)O [AMIFOSTINE] | – | Not Active | Not Active | Not Active | Not Active | Not Active | 1.93 | 0.655 | – | – | – | – | – | –
20 | CC[C@]1(O)C[C@@H]2CN(CCc3c([nH]c4ccccc34)[C@@](C(=O)OC)(c3cc4c(cc3OC)N(C)[C@H]3[C@@](O)(C(N)=O)[C@H](O)[C@]5(CC)C=CCN6CC[C@]43[C@@H]65)C2)C1 [VINDESINE] | Not Active | Not Active | Not Active | Not Active | Not Active | Not Active | – | – | – | – | – | – | – | –
21 | CCn1cc(C(=O)O)c(=O)c2cc(F)c(N3CCNC(C)C3)c(F)c21 (stereo unspecified) [LOMEFLOXACIN] | Not Active | Not Active | Not Active | Not Active | Not Active | Not Active | – | – | – | – | – | – | – | –
22 | CN1CCN(c2c(F)cc3c(=O)c(C(=O)O)cn(CCF)c3c2F)CC1 [FLEROXACIN] | Not Active | Not Active | Not Active | Not Active | Not Active | Not Active | – | – | – | – | – | – | – | –
23 | CC(C)(C(=O)O)c1ccc(C(O)CCCN2CCC(C(O)(c3ccccc3)c3ccccc3)CC2)cc1 (stereo unspecified) [FEXOFENADINE] | Not Active | Not Active | Not Active | Not Active | Not Active | Not Active | – | – | – | – | – | – | – | –
24 | C[C@H]1COc2c(N3CCN(C)CC3)c(F)cc3c(=O)c(C(=O)O)cn1c23.C[C@H]1COc2c(N3CCN(C)CC3)c(F)cc3c(=O)c(C(=O)O)cn1c23.O [LEVOFLOXACIN] | Not Active | Not Active | Not Active | Not Active | Not Active | Not Active | – | – | – | – | – | – | – | –
25 | NC(=O)c1cccc(N)c1 [3-AMINOBENZAMIDE] | Not Active | Not Active | Not Active | Not Active | Not Active | Not Active | – | – | – | – | – | – | – | –
26 | CC(=O)OC[C@H]1O[C@@H](n2ncc(=O)[nH]c2=O)[C@H](OC(C)=O)[C@@H]1OC(C)=O [AZARIBINE] | Not Active | Not Active | Not Active | Not Active | Not Active | Not Active | – | – | – | – | – | – | – | –
27 | NC(=O)N1c2ccccc2CC(=O)c2ccccc21 [OXCARBAZEPINE] | Not Active | Not Active | Not Active | Not Active | Not Active | Not Active | – | – | – | – | – | – | – | –
28 | C#C[C@]1(O)CC[C@H]2[C@@H]3CCC4=CC(=O)CC[C@]4(C)[C@H]3CC[C@@]21C [ETHISTERONE] | Not Active | Not Active | Not Active | Not Active | Not Active | Not Active | – | – | – | – | – | – | – | –
29 | CCC1=C(C)CN(C(=O)NCCc2ccc(S(=O)(=O)NC(=O)N[C@H]3CC[C@H](C)CC3)cc2)C1=O [GLIMEPIRIDE] | Not Active | Not Active | Not Active | Not Active | Not Active | Not Active | – | – | – | – | – | – | – | –
30 | O=C(O)CCCc1cccs1 | Not Active | Not Active | Not Active | Not Active | Not Active | Not Active | – | – | – | – | – | – | – | –
31 | Cc1ccc(C)c(OCCCC(C)(C)C(=O)O)c1 [GEMFIBROZIL] | Not Active | Not Active | Not Active | Not Active | Not Active | Not Active | – | – | – | – | – | – | – | –
32 | NNCCc1ccccc1 [PHENELZINE] | Not Active | Not Active | Not Active | Not Active | Not Active | Not Active | – | – | – | – | – | – | – | –
33 | N=C(N)c1ccc(OCCCCCOc2ccc(C(=N)N)cc2)cc1 [PENTAMIDINE] | – | Not Active | Not Active | – | Not Active | Not Active | – | – | 1.58 | 0.22 | – | – | – | –
